Key:
Format in all cases: in vivo
[1] = Taste panel: umami and salt intensity of solution B vs reference solution A (Example 2); conditions: 10 ppm compound in 0.5% NaCl and 0.03% MSG vs same solution without compound; scale -3 (much lower than base) to 3 (much higher than base); average of 4 flavourists
Experimental: Two solutions were prepared: • A a solution of 0.5% NaCl and 0.03% MSG • B a solution of 0.5% NaCl and 0.03% MSG and 10 ppm Example 1 compound
The samples were tasted by a small group of flavourists (2 male, 2 female, aged between 30 and 60). The intensity of the umami and salt taste of solution B was compared with that of the reference (solution A) and rated according to the following intensity scale: • Taste effect much lower than base: −3 • Taste effect lower than base: −2 • Taste effect slightly lower than base: −1 • Taste effect same as base: 0 • Taste effect slightly higher than base: 1 • Taste effect higher than base: 2 • Taste effect much higher than base: 3
The results (average of ratings given by the flavourists) were: […]

[2] = Taste panel: bouillon with compound vs reference bouillon (Example 4); conditions: 200 ppm in bouillon (32 g mix in 1 L boiling water); 4 flavourists
Experimental: A bouillon mix was prepared from 155.0 g of sodium chloride, 157.0 g of dextrose monohydrate (ex Tapioca), 0.2 g of celery oleoresin, 0.3 g of oleoresin turmeric Vegex, 0.2 g of oleoresin coriander seed, 444.8 g maltodextrin 5-8 DE, 40.0 g vegetable oil soya bean refined, 30.0 g yeast standard light, 4.0 g of onion powder, 4.0 g of garlic powder, 0.5 g of white pepper and 164.0 g of potato starch.
32 g of the well-mixed ingredients was added to 1 L of boiling water and stirred until completely dissolved.
A small group of flavourists (2 male, 2 female) compared the taste of the reference bouillon with that of a batch of the same bouillon containing 200 ppm of N-methyl-D-aspartic acid.

[3] = Taste panel: enhancement effect on NaCl, MSG and ribonucleotides taste (Example 3); conditions: 5-10 flavourists
Experimental: Six solutions were prepared: • A a solution of 0.5% NaCl • B a solution of 0.5% NaCl and 0.03% MSG • C a solution of 0.5% NaCl and 0.015% ribonucleotides • D a solution of 0.5% NaCl and 50 ppm Example 1 compound • E a solution of 0.5% NaCl and 0.03% MSG and 50 ppm Example 1 compound • F a solution of 0.5% NaCl and 0.015% ribonucleotides and 50 ppm Example 1 compound
The samples were tasted by a group of 5-10 flavourists aged between 30 and 60. The taste of solution D is compared with that of A to determine the enhancement effect of Example 1 compound on NaCl. Similarly, solution E is compared with solution B and solution F with solution C to determine the enhancement effect of Example 1 compound on MSG and ribonucleotides respectively. The effect is marked between 0 and 10, the greater the value the greater the effect.

SMILES	Intensity Taste Salt (NaCl) [1]	Intensity Taste Umami [1]	Salivating effect of test bouillon vs reference bouillon [2]	Umami taste of test bouillon vs reference bouillon [2]	NaCl Taste ([3]; 50 ppm compound in 0.5% NaCl (solution D) vs solution A (reference 0.0), marked 0 to 10, the greater the value the greater the effect)	Ribo taste ([3]; 50 ppm compound in 0.5% NaCl and 0.015% ribonucleotides (solution F) vs solution C (reference 5.0), marked 0 to 10)	MSG taste ([3]; 50 ppm compound in 0.5% NaCl and 0.03% MSG (solution E) vs solution B (reference 5.0), marked 0 to 10)
CNC(CCC(=O)O)C(=O)O (racemic) [N-methyl-DL-glutamic acid, N-methyl-DL-glutamic Acid]	1.00	0.00	–	–	–	–	–
CN[C@H](CC(=O)O)C(=O)O [N-methyl-D-aspartic acid, N-methyl-D-aspartic Acid]	0.50	0.50	slightly more salivating	slightly more umami	0.7	6.3	5.3
